From patent US20260191998A1, “INDOLE PHTHALOCYANINE COMPOUND, PREPARATION METHOD THEREFOR, AND USE THEREOF IN TUMOR DIAGNOSIS IMAGING” (JIANGSU YAHONG MEDITECH CO., LTD., priority 2022, published 2026)
pIC50: −log10 of the molar value. Where a name gives a salt, the structure may show the parent alone.

Columns and labels:
[1] = tested on: human bladder cancer cell line UM-UC-3; test: In vitro imaging effect test with addition of BSP, UM-UC-3; type: cell-based; conditions: 250 μM BSP, compound 1-20 μM with surfactin 1:5, 30 minutes
Experimental: UM-UC-3 (1.5×10^4/well) were cultured in EMEM medium (containing 10% fetal bovine serum (FBS) and 1% antibiotics (100 U/mL penicillin and 100 U/mL streptomycin)) and seeded in a 96-well plate in advance. The plate was cultured in a 5% CO2 cell culture incubator at 37° C. overnight. The following day, the culture medium was sucked away, and 250 μM of BSP was added to the test wells and preconditioned for 10 minutes, followed by addition of the culture medium containing an appropriate concentration (1-20 μM) of the compound and surfactin (the molar ratio of the test compound to the surfactin being 1:5) with or without 250 μM of BSP, and then incubated for 30 minutes. The cells were rinsed three times with PBS solution, and the near-infrared fluorescence intensity in the bladder cancer cells was observed using an integrated fluorescence microscopic imaging system from Keyence. The conditions for near-infrared photography were Ex=775/50 nm and Em=845/55 nm.

[2] = UV-VIS absorption spectra (optical property test); type: physicochemical; conditions: 10 μM, DMSO solution; for Absorbance × 10^4: at maximum absorption peak
Experimental: The UV-VIS absorption spectra of the compounds (10 μM, DMSO solution) were detected using Shimadzu UV2600 spectrophotometer, and the maximum absorption peak and absorbance of each compound were obtained.

RT112 tumor [3] = conditions: 2 mg/kg or 0.4 mg/kg intraperitoneal, 48 hours after injection
Experimental: All animal experiments were conducted exactly in accordance with the guidelines for the care and use of animals issued by the regional animal committee. A mouse model of xenograft RT112 tumor was established by subcutaneous injection of RT112 cell suspension (2×10^6 cells/mouse, 0.1 ml PBS) into the upper right limb of 8- to 10-week-old BALB/C female nude mice (20 to 25 g). BABL/c nude mice (15 to 20 g) were purchased from Beijing Vital River Laboratory Animal Technology Co., Ltd. For in vivo near-infrared fluorescence (NIRF) imaging, the RT112 tumor-bearing mice were intraperitoneally injected with different doses of free compounds (2 mg/kg or 0.4 mg/kg), respectively. At 48 hours after injection, near-infrared imaging was performed using an IVIS Lumina spectroscopic imaging system (excitation/emission, 780/845 nm).

RT112 tumor [4] = test: Tumor/background ratio in subcutaneous RT112 tumor model mice; type: in vivo; conditions: 2 mpk intraperitoneal, 48 hours after injection
Source text: The subcutaneous tumor model mice inoculated with RT112 tumor were selected. Each compound was administrated at a dose of 2 mpk, and intraperitoneally injected.

[5] = Kinetic solubility in phosphate buffered saline (HPLC); type: physicochemical; conditions: phosphate buffered saline (PBS), aqueous buffer, kinetic from dmso stock, 25° C., shaken 2 hours, from 10 mM DMSO stock
Experimental: The compounds were weighed in an appropriate amount and dissolved in DMSO to prepare a 10 mM stock solution. 30 μL of the stock solution was taken and 970 μL of phosphate buffered saline solution (PBS) was added thereto. The solution was shaken at 25° C. on a thermostatic mixer for 2 hours, and centrifuged at 12000 rpm for 10 minutes. The supernatant was taken, and the kinetic solubility of each compound in phosphate buffered saline solution (PBS) was determined by Waters Acquity Arc HPLC.

hERG channels = hERG channels (Homo sapiens, UniProt Q12809); test: hERG whole-cell patch clamp in HEK 293 cells stably expressing hERG; type: cell-based; conditions: HEK 293 stably expressing hERG, tail current
Chain of hERG channels (Q12809 whole entry): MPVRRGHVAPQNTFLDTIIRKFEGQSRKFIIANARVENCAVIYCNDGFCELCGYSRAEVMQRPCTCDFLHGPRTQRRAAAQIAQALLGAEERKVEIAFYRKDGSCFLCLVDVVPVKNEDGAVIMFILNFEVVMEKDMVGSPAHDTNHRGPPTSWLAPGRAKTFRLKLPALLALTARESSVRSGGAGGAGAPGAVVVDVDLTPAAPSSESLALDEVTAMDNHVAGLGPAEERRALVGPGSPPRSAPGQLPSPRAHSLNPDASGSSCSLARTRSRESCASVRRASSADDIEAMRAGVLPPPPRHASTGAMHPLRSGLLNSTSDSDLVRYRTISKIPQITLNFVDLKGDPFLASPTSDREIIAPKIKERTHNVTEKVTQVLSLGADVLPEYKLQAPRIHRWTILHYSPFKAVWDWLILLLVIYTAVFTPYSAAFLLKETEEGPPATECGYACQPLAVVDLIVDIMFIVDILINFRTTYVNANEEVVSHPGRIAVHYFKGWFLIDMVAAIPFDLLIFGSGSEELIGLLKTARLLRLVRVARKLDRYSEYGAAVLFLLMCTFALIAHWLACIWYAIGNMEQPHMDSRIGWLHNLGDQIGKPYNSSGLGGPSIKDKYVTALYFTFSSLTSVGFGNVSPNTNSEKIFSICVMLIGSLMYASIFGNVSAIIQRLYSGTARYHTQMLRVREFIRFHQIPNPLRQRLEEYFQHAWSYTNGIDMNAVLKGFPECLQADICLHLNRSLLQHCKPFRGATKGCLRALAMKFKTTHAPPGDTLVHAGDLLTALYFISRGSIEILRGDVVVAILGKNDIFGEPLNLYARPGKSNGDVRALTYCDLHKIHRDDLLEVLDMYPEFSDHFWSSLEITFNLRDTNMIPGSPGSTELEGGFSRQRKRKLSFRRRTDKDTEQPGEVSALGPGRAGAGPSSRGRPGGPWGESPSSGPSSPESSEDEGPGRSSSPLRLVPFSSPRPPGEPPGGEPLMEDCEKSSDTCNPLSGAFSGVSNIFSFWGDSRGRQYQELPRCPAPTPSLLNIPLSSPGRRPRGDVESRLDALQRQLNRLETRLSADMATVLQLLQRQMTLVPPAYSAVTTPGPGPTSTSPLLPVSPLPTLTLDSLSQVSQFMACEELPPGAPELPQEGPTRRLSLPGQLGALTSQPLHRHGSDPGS
Experimental: The HEK 293 cell line (K1236) stably expressing hERG was purchased from Invitrogen. Cells were cultured in 85% DMEM, 10% dialyzed FBS, 0.1 mM NEAA, 25 mM HEPES, 100 U/mL penicillin-streptomycin, 5 μg/mL blasticidin and 400 μg/mL geneticin. Cells were split using TrypLE™ about three times a week, and maintained at a confluence of about 40% to about 80%. Before measurement, cells were cultured at a density of 5×10^5 in a 6 cm culture dish and induced with 1 μg/mL doxycycline for 48 hours.
Extracellular solution (mM): 132 NaCl, 4 KCl, […], 0.5 MgCl2, 11.1 glucose, 10 HEPES (pH 7.35 adjusted with NaOH);
Intercellular solution (mM): 140 KCl, 2 MgCl2, 10 EGTA, 10 HEPES, 5 MgATP (pH 7.35 adjusted with KOH).
The test compounds were formulated in DMSO to prepare a stock solution with a final concentration of 10 mM.
Then, the stock solution of each compound was diluted with DMSO in a 1:3 serial dilution to prepare five intermediate solutions with concentrations of 3, 1, 0.33, 0.12, 0.04 mM or 3.33, 1.11, 0.37, 0.12 mM, respectively.
Before testing, the final working solutions were prepared by diluting the intermediate solutions 1000 times with the extracellular solution. The concentration of DMSO in the working solutions was within a range around 0.1%.
The working solutions at five different concentrations of 3, 1, 0.33, 0.12 and 0.04 μM were used to determine the potential inhibition effect of the compounds on hERG channels and to fit concentration-response curves and calculate IC50.
The coverslip was removed from the cell culture dish and placed on a microscope stage.
A 10× objective was used to locate cells to be observed. An electrode tip was located under the microscope using the 10× objective by focusing above the plane of the cells. Once the tip was in focus, the electrode was advanced downward towards the cells under rough control of the manipulator, while the objective was moved so as to keep the tip in focus.
When the electrode was directly over a cell, the objective was switched to a 40× objective and fine control of the manipulator was used to enable to gradually approach the cell surface.
With gentle suction through a side port of an electrode holder, a giga-ohm seal was formed.
Cfast was used to eliminate the capacitive current consistent with the voltage step. Brief and strong suction was applied repeatedly until the membrane patch ruptured and the whole-cell configuration was obtained.
At this point, membrane potential was set to −60 mV in order to ensure that hERG channels were not open. Then, Cslow on the amplifier was used to remove the spikes of capacitive current.
Holding potential was set to −90 mV for 500 ms. Current was recorded at 20 kHz and filtering was carried out at 10 kHz. Leak current was tested at −80 mV for 500 ms.
The hERG current was elicited by depolarizing at +30 mV for 4.8 seconds, and then the voltage was restored to −50 mV for 5.2 seconds to remove the inactivation and observe the deactivating tail current. The maximum of tail current size was used to determine hERG current amplitude.
Current was recorded for 120 seconds to evaluate the current stability. Only stable cells with recording parameters above thresholds were used for drug administrations.
Firstly, vehicle control was applied to the cells to establish the baseline. […] The hERG current in the presence of the test compound was recorded for about 5 minutes to reach a steady state, and then 5 sweeps were captured. For dose-response testing, multiple compounds were applied to the cells cumulatively from low to high concentrations (multiple compounds were detected simultaneously). The positive control, Dofetilide at a concentration of 150 nM, was also applied to each cell post hERG current measurement at the highest concentration of the test compound, which was used as an internal low control for normalization of percentage inhibition. […]

Structure (SMILES): CC[N+]1=C(/C=C/C2=C(Cl)C(=C/C=C3/N(CCOCCC(=O)Oc4ccccc4)c4ccccc4C3(C)C)/CCC2)C(C)(C)c2ccccc21 [Example 7, 2-((E)-2-((E)-2-chloro-3-(2-((E)-3,3-dimethyl-1-(2-(3-oxo-3-phenoxypropoxy)ethyl)indolin-2-ylidene)ethenyl)cyclohex-1-en-1-yl)ethenyl)-1-ethyl-3,3-dimethyl-3H-indol-1-ium Trifluoroacetate]
- Uptake by UM-UC-3 with or without BSP [1]: may be weakened or enhanced by BSP
- Absorption peak [2]: 794.5 nm
- Absorbance × 10^4 [2]: 1.92
- Enrichment at the tumor sites (NIR fluorescence) (RT112 tumor [3]): specifically enriched at the tumor sites

Structure (SMILES): CC[N+]1=C(/C=C/C2=C(Cl)C(=C/C=C3/N(CCOCC(=O)Oc4ccccc4)c4ccccc4C3(C)C)/CCC2)C(C)(C)c2ccccc21 [Example 8, 2-((E)-2-((E)-2-chloro-3-(2-((E)-3,3-dimethyl-1-(2-(2-oxo-2-phenoxyethoxy)ethyl)indolin-2-ylidene)ethenyl)cyclohex-1-en-1-yl)ethenyl)-1-ethyl-3,3-dimethyl-3H-indol-1-ium Trifluoroacetate]
- Uptake by UM-UC-3 with or without BSP [1]: may be weakened or enhanced by BSP
- Absorption peak [2]: 794.5 nm
- Absorbance × 10^4 [2]: 1.96
- Enrichment at the tumor sites (NIR fluorescence) (RT112 tumor [3]): specifically enriched at the tumor sites

Structure (SMILES): C[N+]1=C(/C=C/C2=C(Cl)C(=C/C=C3/N(CCCCCC(=O)O)c4ccccc4C3(C)C)/CC2)C(C)(C)c2ccccc21 [Example 10, 2-((E)-2-((E)-3-(2-((E)-1-(5-carboxypentyl)-3,3-dimethylindolin-2-ylidene)ethenyl)-2-chlorocyclopent-1-en-1-yl)ethenyl)-1,3,3-trimethyl-3H-indol-1-ium Chloride]
- Uptake by UM-UC-3 with or without BSP [1]: may be weakened or enhanced by BSP
- Absorption peak [2]: 821 nm
- Absorbance × 10^4 [2]: 2.08
- Tumor/background ratio (RT112 tumor [4]): 3.3
- solubility kinetic at 2 h [5]: 26 µg/mL
- pIC50 (hERG channels): 5.88
- Enrichment at the tumor sites (NIR fluorescence) (RT112 tumor [3]): specifically enriched at the tumor sites
